Test results as given in PubChem BioAssay (NCI).
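Compound exposure: 48 hours, 5 concentrations, 96-well plates. At the TGI there is no net growth.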

Legend:
Experiment in all cases: NCI anticancer screen, dose series, 48 h
786-0 renal = test system: 786-0 renal
CAKI-1 renal = test system: CAKI-1 renal
CCRF-CEM leukemia = test system: CCRF-CEM leukemia
EKVX NSCLC = test system: EKVX NSCLC
HS 578T breast = test system: HS 578T breast
HT29 colon = test system: HT29 colon
IGROV1 ovarian = test system: IGROV1 ovarian
MALME-3M melanoma = test system: MALME-3M melanoma
MCF7 breast = test system: MCF7 breast
MDA-MB-231 breast = test system: MDA-MB-231 breast
MDA-MB-435 = test system: MDA-MB-435
NCI-H23 lung = test system: NCI-H23 lung
OVCAR-5 ovarian = test system: OVCAR-5 ovarian
SK-OV-3 ovarian = test system: SK-OV-3 ovarian
SNB-19 CNS = test system: SNB-19 CNS
UACC-62 melanoma = test system: UACC-62 melanoma
LOX IMVI melanoma = test system: LOX IMVI melanoma
OVCAR-8 ovarian = test system: OVCAR-8 ovarian
RXF 393 renal = test system: RXF 393 renal

Measured: TGI

Cc1nc2ccccc2n1Cc1nnc2n1N=C(c1ccccc1)CS2
62.9 µM: MDA-MB-231 breast
20.1 µM: IGROV1 ovarian
99.4 µM: UACC-62 melanoma
not listed: LOX IMVI melanoma | OVCAR-8 ovarian | RXF 393 renal
> 100 µM: all other assays above

CC(=O)C1=C(C)N(c2ccccc2)C2(O)C=CC(=O)C3=C(O)c4ccccc4C(=O)C312 (stereo not given)
38.6 µM: SNB-19 CNS
49.1 µM: EKVX NSCLC
34.1 µM: UACC-62 melanoma
5.19 µM: MDA-MB-435
46.3 µM: NCI-H23 lung
39.3 µM: OVCAR-5 ovarian
34.3 µM: IGROV1 ovarian | OVCAR-8 ovarian
36.6 µM: RXF 393 renal
33.3 µM: CAKI-1 renal
51 µM: MDA-MB-231 breast
83 µM: LOX IMVI melanoma
2.64 µM: MALME-3M melanoma
> 100 µM: all other assays above

CCCCCCCCCCCCCCCCOc1ccc(/C=C/C2=[N+](CCCl)CCO2)cc1
83.5 µM: MDA-MB-231 breast
not listed: NCI-H23 lung | RXF 393 renal
> 100 µM: all other assays above

Cc1nc2cccc([N+](=O)[O-])c2n1CCCN(C)C
> 100 µM: all assays above

NC(=O)CNC(=O)[C@@H]1C[C@@H](OCCC(=O)O)CN1C(=O)OCc1ccccc1
not listed: CAKI-1 renal | OVCAR-8 ovarian
> 100 µM: all other assays above

O=C(CCc1ccc(O)cc1)NCCCNC(=O)CCc1ccc(O)cc1
not listed: EKVX NSCLC
> 100 µM: all other assays above

O=C1C2CC=CCC2C(=O)N1n1c(Cc2ccccc2)n[nH]c1=O (stereo not given)
> 100 µM: all assays above
